Laboratory results published in article PMC8226474, “Design, Syntheses, and Bioevaluations of Some Novel N^2-Acryloylbenzohydrazides as Chemostimulants and Cytotoxic Agents” (Medicines, 2021).
Values joined by “and” are separate entries in the source; they are usually repeats but may differ in a detail not shown here. Equal values may be shown once.

Tests used:
HCT 116 cells [1] = assay: Cytotoxicity assay, HCT 116 colon cancer cells; format: cell-based, human; settings: for inhibition at 10 µM / inhibition at 100 µM / IC50: Homo sapiens, HCT-116, 48 h; for inhibition at 10 µM / inhibition at 100 µM: read-out: percentage inhibition of HCT 116 cells; for IC50 / SI (selectivity index): Table 2; for IC50: read-out: Neoplastic Cells IC50, HCT 116; for SI (selectivity index): IC50 CRL 1790 / IC50 HCT 116
Excerpt: (§1) Evaluation of the cytotoxic properties of the compounds presented in Table 1, Table 2, Table 3 and Table 4 was undertaken using the procedure outlined in [7]. In brief, the HCT 116 cells were obtained from the ATCC and cultured in McCoy’s 5A medium. The CRL 1790 cells were obtained from the ATCC and cultured in Minimum Essential Medium. The MCF-7 and MDA-MBA-231 cells were obtained from the Saskatchewan Cancer Agency and cultured in DMEM. In each assay the culture medium was supplemented with 10% fetal bovine serum and 1% penicillin–streptomycin antibiotics. The time of the bioassays was 48 h, unless indicated otherwise. All determinations were carried out in triplicate on three different occasions.

MCF-7 cells = assay: Cytotoxicity assay, MCF-7 breast cancer cells; format: cell-based, human; settings: Homo sapiens, MCF7, 48 h, read-out: percentage inhibition of MCF-7 cells
Excerpt: as §1

MDA-MB-231 cells = assay: Cytotoxicity assay, MDA-MB-231 breast cancer cells; format: cell-based, human; settings: Homo sapiens, MDA-MB-231, 48 h, read-out: percentage inhibition of MDA-MB-231 cells
Excerpt: as §1

CRL 1790 cells = assay: Cytotoxicity assay, non-malignant CRL 1790 colon cells; format: cell-based; settings: Homo sapiens, 48 h, Table 2, read-out: Non-Malignant CRL 1790 Cells IC50
Excerpt: as §1

Ramos cells = assay: Cytotoxicity (CC50), Ramos cells; format: cell-based, human; settings: for CC50: Homo sapiens, Ramos, 24 h incubation; for SI Ramos: average CC50 of non-malignant cells / CC50 Ramos
Protocol: (§2) In brief, the compounds were incubated for 24 h with the neoplasms, using DMEM and RPMI media. Three independent experiments were carried out.

NALM-60 cells = assay: Cytotoxicity (CC50), NALM-60 cells; format: cell-based, human; settings: for CC50: Homo sapiens, 24 h incubation; for SI NALM-60: average CC50 of non-malignant cells / CC50 NALM-60
Protocol: as §2

CEM cells = assay: Cytotoxicity (CC50), CEM cells; format: cell-based, human; settings: for CC50: Homo sapiens, CCRF-CEM, 24 h incubation; for SI CEM: average CC50 of non-malignant cells / CC50 CEM
Protocol: as §2

HL-60 cells = assay: Cytotoxicity (CC50), HL-60 cells; format: cell-based, human; settings: for CC50: Homo sapiens, HL-60, 24 h incubation; for SI HL-60: average CC50 of non-malignant cells / CC50 HL-60
Protocol: as §2

JURKAT cells = assay: Cytotoxicity (CC50), Jurkat cells; format: cell-based, human; settings: for CC50: Homo sapiens, Jurkat, 24 h incubation; for SI JURKAT: average CC50 of non-malignant cells / CC50 JURKAT
Protocol: as §2

RAJI cells = assay: Cytotoxicity (CC50), Raji cells; format: cell-based, human; settings: for CC50: Homo sapiens, Raji, 24 h incubation; for SI RAJI: average CC50 of non-malignant cells / CC50 RAJI
Protocol: as §2

[2] = Cytotoxicity (CC50), non-malignant Hs27 foreskin cells; format: cell-based; settings: human, 24 h incubation
Protocol: as §2

[3] = Cytotoxicity (CC50), non-malignant MCF-10A breast cells; format: cell-based; settings: human, MCF-10A cells (non-malignant breast cells); 24 h incubation; read-out: Non-Malignant Cells CC50, MCF10A
Protocol: as §2

[4] = tested on: Ramos, NALM-60, CEM, HL-60, JURKAT, RAJI cells; assay: Cytotoxicity (CC50), average over six leukemia/lymphoma cell lines; format: cell-based, human; settings: for CC50: Homo sapiens, average over six neoplastic cell lines
Protocol: as §2

[5] = Cytotoxicity (CC50), average over non-malignant cells; format: cell-based; settings: human, Hs27 and MCF10A cells (non-malignant), average of both
Protocol: as §2

HCT 116 cells [6] = assay: Chemosensitization of HCT 116 cells: 1m for 24 h, then 2a or 5-FU for a further 24 h; format: cell-based, human; settings: for Reduction in Live Cells % 1m (48 h): DMSO figure minus compound figure
Excerpt: as §1
The next phase of the investigation was to determine whether a representative compound in series 1 chemosensitizes HCT 116 cells to a 3,5-bis(benzylidene)-4-piperidone 2a. […] The colon cancer cells were incubated for 24 h with 1m, and then 2a was added and the incubation was continued for a further 24 h. Different concentrations of both 1m and 2a were employed, and the results are presented as entries 1–12 in Table 3. In addition, the effects of each of 1m, 2a, and 5-FU on HCT 116 cells (which are necessary for the evaluation of whether chemosensitivity occurs) were recorded, and are presented as entries 13–20 in Table 3.
The concentration of 1m in combination 4 is 5 µM, which after 48 h causes a percentage reduction of live cells to 86% (DMSO figure after 48 h, line 20) minus 75% (48 h, line 13), or 11%.
The concentration of 2a in combination 4 is 0.2 µM. This combination leads to a reduction of the percentage of live cells to 91% (DMSO figure after 24 h, line 20) minus 69%, or 22%.
The percentage reduction in live cells caused by a combination of 1m (5 µM) and 2a (0.2 µM), in the absence of chemosensitization, is 11% plus 22%, or 33%.
However, the percentage reduction in cells as indicated on line 4 is 86% (DMSO figure after 48 h) minus 12% (line 4, 48 h figure), or 74%.

HCT 116 cells [7] = assay: Mitochondrial membrane potential of HCT 116 cells (TMRE dye); format: cell-based, human; settings: IC50 concentration towards HCT 116, 48 h, Figure 4
Excerpt: The method of Crowley et al. was employed in order to ascertain the effects of 1m, 7a, e, g, and 5-FU on the mitochondrial membrane potential of HCT 116 cells.
The decision was made to experiment with another method for determining the effect of compounds on the MMP. In this assay, the dye used was tetramethylrhodamine ethyl ester (TMRE), which can be found in the mitochondria of healthy cells. However, in apoptotic cells, the dye is released into the cytosol, leading to a decrease in the fluorescence signal.

HCT 116 cells [8] = assay: ROS levels in HCT 116 cells (DCF-DA dye); format: cell-based, human; settings: IC50 concentration towards HCT 116; DCF-DA fluorescence; Figure 5
Protocol: In this assay, the dye 2,7-dichlorofluorescein diacetate (DCF-DA) was used, and the effects of 1m, 7a, e, g, and 5-FU on the ROS levels in HCT 116 cells were determined by the method of [11].
The evaluation of 1m, […], e, and g for their capacity to increase the concentration of ROS in HCT 116 cells used 2′,7′-dichlorofluorescein diacetate. This dye is deacetylated in cells, and is converted into a non-fluorescent compound that reacts with ROS to form 2′,7′-dichlorofluorescein, which is fluorescent.

Row | melting point [°C] | SMILES | inhibition at 10 µM (HCT 116 cells [1]) [%] | inhibition at 100 µM (HCT 116 cells [1]) [%] | inhibition at 10 µM (MCF-7 cells) [%] | inhibition at 100 µM (MCF-7 cells) [%] | inhibition at 10 µM (MDA-MB-231 cells) [%] | inhibition at 100 µM (MDA-MB-231 cells) [%] | CC50 (Ramos cells) [µM] | SI Ramos (Ramos cells) | CC50 (NALM-60 cells) [µM] | SI NALM-60 (NALM-60 cells) | CC50 (CEM cells) [µM] | SI CEM (CEM cells) | CC50 (HL-60 cells) [µM] | SI HL-60 (HL-60 cells) | CC50 (JURKAT cells) [µM] | SI JURKAT (JURKAT cells) | CC50 (RAJI cells) [µM] | SI RAJI (RAJI cells) | CC50 at 24 h [2] [µM] | also measured
1 | 177 to 179 | C=CC(=O)NNC(=O)c1ccccc1 [1a, N^2-Acryloylbenzohydrazide] | 10.6 ± 1.7 | 94.1 ± 1.44 | 5.47 ± 3.52 | 51.1 ± 2.87 | -12.2 ± 1.5 | 52.1 ± 2.04 | 0.19 ± 0.01 | 67.9 | 2.74 ± 0.59 | 4.71 | 0.91 ± 0.48 | 14.2 | 3.32 ± 0.26 | 3.89 | 3.52 ± 0.36 | 3.65 | 5.18 ± 0.35 | 2.49 | 12.1 ± 0.91 | IC50 (HCT 116 cells [1]): 36.9 ± 2.84 µM; SI (selectivity index) (HCT 116 cells [1]): >2.70; IC50 (CRL 1790 cells): > 100 µM; CC50 at 24 h [3]: 13.7 ± 1.1 µM; Avg SI, neoplastic cells [4]: 16.1; CC50 [4]: 2.64 µM; CC50 at 24 h [5]: 12.9 µM
2 | 233 to 235 | C=CC(=O)NNC(=O)c1ccc(Cl)cc1 [1d, N^2-Acryloyl-4-chlorobenzohydrazide] | -5.05 ± 2.36 | 82.3 ± 0.8 | 3.59 ± 2.08 | 55.9 ± 2.82 | -12.3 ± 4.05 | 49.1 ± 2.04 | 0.15 ± 0.02 | 57.9 | 2.86 ± 0.55 | 3.04 | 0.86 ± 0.07 | 10.1 | 2.9 ± 0.76 | 3.00 | 1.07 ± 0.09 | 8.12 | 2.71 ± 0.09 | 3.24 | 10.5 ± 0.05 | CC50 at 24 h [3]: 6.87 ± 0.48 µM; Avg SI, neoplastic cells [4]: 14.2; CC50 [4]: 1.76 µM; CC50 at 24 h [5]: 8.69 µM
3 | 207 to 210 | C=CC(=O)NNC(=O)c1cc(Cl)ccc1Cl [1h, N^2-Acryloyl-2,5-dichlorobenzohydrazide] | 7.12 ± 1.51 | 87.7 ± 1.62 | 14.7 ± 3.68 | 54.2 ± 3.42 | -5.95 ± 4.21 | 122 ± 2.9 | 0.29 ± 0.05 | 47.2 | 3.34 ± 0.43 | 4.10 | 3.37 ± 0.18 | 4.07 | 5.62 ± 0.29 | 2.44 | 2.5 ± 0.24 | 5.48 | 5.5 ± 1.1 | 2.49 | 14.4 ± 0.24 | CC50 at 24 h [3]: 12.9 ± 0.95 µM; Avg SI, neoplastic cells [4]: 11.0; CC50 [4]: 3.44 µM; CC50 at 24 h [5]: 13.7 µM
4 | 163 to 165 | C=CC(=O)NNC(=O)c1ccc(OC)c(OC)c1 [1m, N^2-Acryloyl-3,4-dimethoxylbenzohydrazide] | 46.9 ± 2.55 | 97.9 ± 1.92 | -16.1 ± 3.51 | > 100 | -15.9 ± 1.96 | 50.5 ± 1.42 |  |  |  |  |  |  |  |  |  |  |  |  |  | IC50 (HCT 116 cells [1]): 15.3 ± 0.42 µM; SI (selectivity index) (HCT 116 cells [1]): >6.54; IC50 (CRL 1790 cells): > 100 µM; Reduction in Live Cells % 1m (48 h) (HCT 116 cells [6]; 1m 5 µM alone, 48 h): 11%; Reduction in Live Cells % 1m (48 h) (HCT 116 cells [6]; 1m 10 µM alone, 48 h): 29%; Reduction in Live Cells % 1m (48 h) (HCT 116 cells [6]; 1m 15 µM alone, 48 h): 54%; chemosensitization of HCT 116 cells (HCT 116 cells [6]; 1m 24 h before the cytotoxin, certain concentrations): sensitizes HCT 116 cells to the potent cytotoxin 2a, and also to the established anticancer drug 5-FU; Live Cells % (HCT 116 cells [6]; entry 13: 1m 5 µM alone, 24 h): 88 ± 2.82%; Live Cells % (HCT 116 cells [6]; entry 13: 1m 5 µM alone, 48 h): 75% and 75 ± 4.89%; Live Cells % (HCT 116 cells [6]; entry 14: 1m 10 µM alone, 24 h): 67 ± 1.67%; Live Cells % (HCT 116 cells [6]; entry 14: 1m 10 µM alone, 48 h): 57 ± 1.76%; Live Cells % (HCT 116 cells [6]; entry 15: 1m 15 µM alone, 24 h): 61 ± 3.49%; Live Cells % (HCT 116 cells [6]; entry 15: 1m 15 µM alone, 48 h): 32 ± 0.94%; effect on mitochondrial membrane potential of HCT 116 cells (HCT 116 cells [7]): only 7e reduces the electrochemical potential of the mitochondria; effect on ROS levels in HCT 116 cells (HCT 116 cells [8]): increase the fluorescence intensity
